Assay results as given in PubChem BioAssay (NCI).
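Briefly, cells in 96-well plates were exposed to five compound concentrations for 48 h, and endpoints were estimated by linear interpolation. The concentration for 50% growth inhibition is given as GI50. TGI: total growth inhibition.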

Experiments:
Assay in all cases: NCI anticancer screen, dose series, 48 h
COLO 205 colon = test system: COLO 205 colon
ACHN renal = test system: ACHN renal
HS 578T breast = test system: HS 578T breast
OVCAR-8 ovarian = test system: OVCAR-8 ovarian
KM12 colon = test system: KM12 colon
HCT-116 colon = test system: HCT-116 colon
SNB-75 CNS = test system: SNB-75 CNS
NCI-H226 lung = test system: NCI-H226 lung
SW-620 colon = test system: SW-620 colon
UO-31 renal = test system: UO-31 renal
PC-3 prostate = test system: PC-3 prostate
UACC-62 melanoma = test system: UACC-62 melanoma
SF-268 CNS = test system: SF-268 CNS
T-47D breast = test system: T-47D breast
MCF7 breast = test system: MCF7 breast
UACC-257 melanoma = test system: UACC-257 melanoma
HL-60(TB) leukemia = test system: HL-60(TB) leukemia
MALME-3M melanoma = test system: MALME-3M melanoma
MDA-MB-231 breast = test system: MDA-MB-231 breast
HCT-15 colon = test system: HCT-15 colon
SF-295 CNS = test system: SF-295 CNS
SN12C renal = test system: SN12C renal
SK-MEL-5 melanoma = test system: SK-MEL-5 melanoma
NCI-H23 lung = test system: NCI-H23 lung
SF-539 CNS = test system: SF-539 CNS
SNB-19 CNS = test system: SNB-19 CNS
OVCAR-3 ovarian = test system: OVCAR-3 ovarian
RPMI-8226 leukemia = test system: RPMI-8226 leukemia
TK-10 renal = test system: TK-10 renal
A498 renal = test system: A498 renal
MOLT-4 leukemia = test system: MOLT-4 leukemia
CCRF-CEM leukemia = test system: CCRF-CEM leukemia
HCC-2998 colon = test system: HCC-2998 colon
OVCAR-5 ovarian = test system: OVCAR-5 ovarian
IGROV1 ovarian = test system: IGROV1 ovarian
A549 NSCLC = test system: A549 NSCLC
SK-OV-3 ovarian = test system: SK-OV-3 ovarian
786-0 renal = test system: 786-0 renal
HT29 colon = test system: HT29 colon
MDA-MB-435 = test system: MDA-MB-435
NCI/ADR-RES ovarian = test system: NCI/ADR-RES ovarian
DU-145 prostate = test system: DU-145 prostate
SR leukemia = test system: SR leukemia
NCI-H460 lung = test system: NCI-H460 lung
RXF 393 renal = test system: RXF 393 renal
HOP-92 NSCLC = test system: HOP-92 NSCLC
BT-549 breast = test system: BT-549 breast
NCI-H522 lung = test system: NCI-H522 lung
CAKI-1 renal = test system: CAKI-1 renal
HOP-62 NSCLC = test system: HOP-62 NSCLC
OVCAR-4 ovarian = test system: OVCAR-4 ovarian
K-562 leukemia = test system: K-562 leukemia
SK-MEL-28 melanoma = test system: SK-MEL-28 melanoma
M14 melanoma = test system: M14 melanoma

COC(=O)[C@H](Cc1cnc[nH]1)NC(=O)[C@@H](NC(=O)Nc1cc(C(F)(F)F)cc(C(F)(F)F)c1)C(C)C
GI50 (COLO 205 colon): 15.2 µM
TGI (COLO 205 colon): 29.4 µM
GI50 (ACHN renal): 17.2 µM
TGI (ACHN renal): 33.4 µM
GI50 (HS 578T breast): 16.8 µM
TGI (HS 578T breast): 47.6 µM
GI50 (OVCAR-8 ovarian): 16.5 µM
TGI (OVCAR-8 ovarian): 31.6 µM
GI50 (KM12 colon): 18.4 µM
TGI (KM12 colon): 35.3 µM
GI50 (HCT-116 colon): 18.9 µM
TGI (HCT-116 colon): 40.7 µM
GI50 (SNB-75 CNS): 13.5 µM
TGI (SNB-75 CNS): 27 µM
GI50 (NCI-H226 lung): 16.8 µM
TGI (NCI-H226 lung): 36 µM
GI50 (SW-620 colon): 18 µM
TGI (SW-620 colon): 35.5 µM
GI50 (UO-31 renal): 15 µM
TGI (UO-31 renal): 29.5 µM
GI50 (PC-3 prostate): 14.5 µM
TGI (PC-3 prostate): 28.4 µM
GI50 (UACC-62 melanoma): 13.9 µM
TGI (UACC-62 melanoma): 27.2 µM
GI50 (SF-268 CNS): 15.2 µM
TGI (SF-268 CNS): 31.1 µM
GI50 (T-47D breast): 12.4 µM
TGI (T-47D breast): 28 µM
GI50 (MCF7 breast): 14.4 µM
TGI (MCF7 breast): 29.6 µM
GI50 (UACC-257 melanoma): 15.7 µM
TGI (UACC-257 melanoma): 29.9 µM
GI50 (HL-60(TB) leukemia): 20.2 µM
TGI (HL-60(TB) leukemia): 39.3 µM
GI50 (MALME-3M melanoma): 16.9 µM
TGI (MALME-3M melanoma): 32.2 µM
GI50 (MDA-MB-231 breast): 12.4 µM
TGI (MDA-MB-231 breast): 25.3 µM
GI50 (HCT-15 colon): 18.2 µM
TGI (HCT-15 colon): 36 µM
GI50 (SF-295 CNS): 16.1 µM
TGI (SF-295 CNS): 31.8 µM
GI50 (SN12C renal): 14.5 µM
TGI (SN12C renal): 28 µM
GI50 (SK-MEL-5 melanoma): 17.1 µM
TGI (SK-MEL-5 melanoma): 31.1 µM
GI50 (NCI-H23 lung): 16.4 µM
TGI (NCI-H23 lung): 31.7 µM
GI50 (SF-539 CNS): 17 µM
TGI (SF-539 CNS): 32.3 µM
GI50 (SNB-19 CNS): 10.9 µM
TGI (SNB-19 CNS): 23.2 µM
GI50 (OVCAR-3 ovarian): 14.7 µM
TGI (OVCAR-3 ovarian): 28.3 µM
GI50 (RPMI-8226 leukemia): 16.1 µM
TGI (RPMI-8226 leukemia): 38.9 µM
GI50 (TK-10 renal): 16.6 µM
TGI (TK-10 renal): 30.7 µM
GI50 (A498 renal): 13 µM
TGI (A498 renal): 27.3 µM
GI50 (MOLT-4 leukemia): 12.5 µM
TGI (MOLT-4 leukemia): 32.2 µM
GI50 (CCRF-CEM leukemia): 14.7 µM
TGI (CCRF-CEM leukemia): 35.6 µM
GI50 (HCC-2998 colon): 15.9 µM
TGI (HCC-2998 colon): 30.7 µM
GI50 (OVCAR-5 ovarian): 16.5 µM
TGI (OVCAR-5 ovarian): 31.1 µM
GI50 (IGROV1 ovarian): 18.1 µM
TGI (IGROV1 ovarian): 36.1 µM
GI50 (A549 NSCLC): 16.7 µM
TGI (A549 NSCLC): 32.7 µM
GI50 (SK-OV-3 ovarian): 18.5 µM
TGI (SK-OV-3 ovarian): 32.5 µM
GI50 (786-0 renal): 18.9 µM
TGI (786-0 renal): 38.6 µM
GI50 (HT29 colon): 18.1 µM
TGI (HT29 colon): 33.8 µM
GI50 (MDA-MB-435): 17.3 µM
TGI (MDA-MB-435): 34.3 µM
GI50 (NCI/ADR-RES ovarian): 33.7 µM
TGI (NCI/ADR-RES ovarian): > 100 µM
GI50 (DU-145 prostate): 17.8 µM
TGI (DU-145 prostate): 32.7 µM
GI50 (SR leukemia): 13.2 µM
TGI (SR leukemia): 32.8 µM
GI50 (NCI-H460 lung): 18.7 µM
TGI (NCI-H460 lung): 37.3 µM
GI50 (RXF 393 renal): 13.6 µM
TGI (RXF 393 renal): 27.5 µM
GI50 (HOP-92 NSCLC): 5.33 µM
GI50 (BT-549 breast): 16.9 µM
TGI (BT-549 breast): 33.3 µM
GI50 (NCI-H522 lung): 13.1 µM
TGI (NCI-H522 lung): 27 µM
GI50 (CAKI-1 renal): 15.9 µM
TGI (CAKI-1 renal): 32.7 µM
GI50 (HOP-62 NSCLC): 19 µM
TGI (HOP-62 NSCLC): 33.7 µM
GI50 (OVCAR-4 ovarian): 15 µM
TGI (OVCAR-4 ovarian): 29 µM
GI50 (K-562 leukemia): 19.2 µM
TGI (K-562 leukemia): 40.5 µM
GI50 (SK-MEL-28 melanoma): 15.7 µM
TGI (SK-MEL-28 melanoma): 29.2 µM
GI50 (M14 melanoma): 16.8 µM
TGI (M14 melanoma): 34 µM
